Values joined by “and” are separate entries in the source; they are usually repeats but may differ in a detail not shown here. Equal entries are not always repeated. “Also recorded” adds a separate entry of the source. Where two headings read alike, the source gives them in different places.
Assays:
[1] = tested on: P. falciparum strains (Pf3D7, PfINDO, PfCam3.1^R539T); assay: SYBR green I antiplasmodial assay, several strains stated together; format: cell-based; settings: Plasmodium falciparum, read-out: IC50s against all three strains of Plasmodium
PfINDO [2] = assay: Giemsa microscopy of parasite morphology after treatment at IC50; format: cell-based, Plasmodium falciparum; settings: ring-stage parasites (6–12 h p.i.) treated at IC50 up to 57 h
Pf3D7 = assay: SYBR green I antiplasmodial growth inhibition assay; format: cell-based; settings: Plasmodium falciparum
PfINDO late schizonts = assay: Egress/invasion inhibition assay; format: cell-based, Plasmodium falciparum; settings: segmental schizonts, 8 h at 2× IC50, then 48 h drug free
MTT cytotoxicity assay [3] = format: cell-based, Human; settings: human, HUH-7 cells
PfGAP50 = target: T1, PfGAP50 (Plasmodium falciparum, UniProt Q8I2X3); assay: Surface plasmon resonance, PfGAP50 immobilized on CM5 chip, 1:1 binding model; settings: KD (SPR, GAP50), 1:1 Langmuir binding model
T1 sequence (Q8I2X3 24-365 limits assumed): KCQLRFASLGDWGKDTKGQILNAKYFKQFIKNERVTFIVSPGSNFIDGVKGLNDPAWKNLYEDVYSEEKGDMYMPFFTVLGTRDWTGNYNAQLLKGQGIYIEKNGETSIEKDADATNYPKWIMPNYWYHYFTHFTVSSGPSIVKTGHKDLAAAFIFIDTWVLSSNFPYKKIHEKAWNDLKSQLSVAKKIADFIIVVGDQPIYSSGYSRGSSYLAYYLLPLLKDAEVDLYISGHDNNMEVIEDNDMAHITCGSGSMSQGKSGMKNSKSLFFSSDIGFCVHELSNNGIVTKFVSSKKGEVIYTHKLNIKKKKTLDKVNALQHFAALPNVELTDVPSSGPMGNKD

PfINDO [4] = assay: SYBR green I antiplasmodial growth inhibition assay; format: cell-based; settings: Plasmodium falciparum
MTT cytotoxicity assay [5] = format: cell-based, Human; settings: human, HEK293 cells
HEK293 = assay: MTT cytotoxicity assay; format: cell-based, Human; settings: for selectivity index for P. falciparum parasites: human kidney and liver cell lines vs parasite; for Selectivity index A: CC50 HEK293/IC50PfINDO
PfCam3.1^R539T (MRA1240) = assay: SYBR green I antiplasmodial growth inhibition assay; format: cell-based; settings: Plasmodium falciparum
HUH-7 = assay: MTT cytotoxicity assay; format: cell-based, Human; settings: CC50PfHUH7/IC50PfINDO
P. falciparum (MRA1240) = assay: Fixed-ratio drug combination assay; format: cell-based, Plasmodium falciparum; settings: in combination with PYR, MFQ, and ART
[6] = tested on: PfCam3.1^R539T early rings (0–3 h p.i.); assay: Ring-stage survival assay; format: cell-based, Plasmodium falciparum; settings: 10× IC50, 6 h treatment, 66 h recovery
[7] = 700 mg dosage in humans, MDR-TB treatment; cited from earlier work
P. bergheiANKA = assay: In vivo antimalarial study; set-up: species or system mice; settings: 50 mg/kg oral, 4 consecutive days
[8] = 3D7, read-out: IC50 (nM) against Pf strains 3D7
[9] = read-out: IC50 (nM) against Pf strains INDO
[10] = read-out: IC50 (nM) against Pf strains Cam3.1^R539T

Row | Compound | IC50 [1] [nM] | effect on parasite morphology and development (PfINDO [2]) | IC50 (Pf3D7; [8]) [nM] | effect on merozoite egress and invasion (PfINDO late schizonts) | CC50 at 24 h (MTT cytotoxicity assay [3]) [nM] | Kd (PfGAP50) | IC50 (PfINDO [4]; [9]) [nM] | CC50 at 24 h (MTT cytotoxicity assay [5]) [nM] | selectivity index for P. falciparum parasites (HEK293) [fold] | IC50 (PfCam3.1^R539T (MRA1240); [10]) [nM] | interaction by average ∑FIC (P. falciparum (MRA1240)) | also measured
1 | Oc1cccc(C(Nc2nccs2)c2ccc3cccnc3c2O)c1 (centres unmarked) [MMV642550, 7-[(3-hydroxyphenyl)-(1,3-thiazol-2-ylamino)methyl]quinolin-8-ol] | ≤ 1500 | permitted Pf development | 393 ± 6.45 | only partial inhibition of parasite invasion | > 200000 | < 75000 nM | 986 ± 159 | > 200000 | > 100 | 1400 ± 97 | – | effect on merozoite egress and invasion (PfINDO late schizonts; listed as 642550): slowed the schizont rupture
2 | CCN(CC)CCCC(C)Nc1ccnc2cc(Cl)ccc12 (centres unmarked) [Chloroquine] | – | – | 14 ± 5 | – | 58500 ± 4730 | – | 290 ± 20 | 45700 ± 3120 | – | 55 ± 4 | – | Selectivity index B (HUH-7): 201.86; Selectivity index A (HEK293): 157.55
3 | CC(C)(C)NC(=O)[C@@H]1CN(Cc2cnc3occc3c2)CCN1C[C@@H](O)C[C@@H](Cc1ccccc1)C(=O)N[C@H]1c2ccccc2C[C@H]1O [MMV1782353, (2S)-1-[(2S,4R)-4-benzyl-2-hydroxy-5-[[(1S,2R)-2-hydroxy-2,3-dihydro-1H-inden-1-yl]amino]-5-oxopentyl]-N-tert-butyl-4-(furo[2,3-b]pyridin-5-ylmethyl)piperazine-2-carboxamide] | – | permitted Pf development | 670 ± 70.2 | only partial inhibition of parasite invasion | > 200000 | – | 562 ± 171 | > 200000 | > 100 | 14300 ± 210 | – | IC50 (Pf3D7; read-out: IC50 Pf3D7): < 1000 nM; effect on merozoite egress and invasion (PfINDO late schizonts; listed as 1782353): slowed the schizont rupture; IC50 (PfINDO [4]; read-out: IC50 PfINDO): < 1000 nM; IC50 (PfCam3.1^R539T (MRA1240); read-out: IC50 PfCam3.1^R539T): > 1000 nM
4 | C[C@@H]1CC[C@H]2[C@@H](C)C(=O)O[C@@H]3O[C@@]4(C)CC[C@@H]1[C@]32OO4 [Artemisinin] | – | – | 13 ± 4 | – | > 100000 | – | 10 ± 2 | > 100000 | – | 15 ± 2 | – | –
5 | N=C(N)NCCCCC(=O)Nc1cc(C(F)(F)F)cc(NC(=O)c2cc(C(=O)Nc3cc(C(F)(F)F)cc(NC(=O)CCCCNC(=N)N)c3O[C@@H]3CCNC3)ncn2)c1O[C@@H]1CCNC1 [Brilacidin, 4-N,6-N-bis[3-(5-carbamimidamidopentanoylamino)-2-[(3R)-pyrrolidin-3-yl]oxy-5-(trifluoromethyl)phenyl]pyrimidine-4,6-dicarboxamide] | ≤ 1500 | partial suppression of invasion | 405 ± 63 | completely prevented invasion/schizont rupture | > 200000 | < 75000 nM and 2810 nM | 634 ± 153 | > 200000 | > 100 | 728 ± 65.2 | additive (∑FIC 1–2.0) | effect on early rings in RSA [6]: cause retardation in the growth cycle but are not able to kill early rings
6 | O=C1[C@H](CC[C@H](O)c2ccc(F)cc2)[C@@H](c2ccc(O)cc2)N1c1ccc(F)cc1 [MMV1581377, (3R,4S)-1-(4-fluorophenyl)-3-[(3S)-3-(4-fluorophenyl)-3-hydroxypropyl]-4-(4-hydroxyphenyl)azetidin-2-one] | – | – | – | – | – | 1160 nM | – | – | – | – | – | –
7 | COc1nc2ccc(Br)cc2cc1[C@@H](c1ccccc1)[C@@](O)(CCN(C)C)c1cccc2ccccc12 [Bedaquiline, (1R,2S)-1-(6-bromo-2-methoxyquinolin-3-yl)-4-(dimethylamino)-2-naphthalen-1-yl-1-phenylbutan-2-ol] | ≤ 1500 | permitted parasites to develop normally while preventing merozoites from invading | 1210 ± 22.4 | schizontocidal activity; also recorded: completely prevented invasion/schizont rupture | > 400000 | < 75000 nM and 9270 nM | – | > 400000 | – | 769 ± 73.6 | additive (∑FIC 1–2.0) | Cmax [7]: 6470 ng/mL; effect on early rings in RSA [6]: showed activity against early rings; mice surviving / cured (P. bergheiANKA): three out of seven; suppression of % parasitemia (P. bergheiANKA): substantial suppression of parasitemia; also recorded: complete suppression of % parasitemia by day 19
8 | NC(N)=Nc1ccc(-c2ccc(-c3ccc(N=C(N)N)c(Cl)c3)o2)cc1Cl [MMV688271, 2-[2-chloro-4-[5-[3-chloro-4-(diaminomethylideneamino)phenyl]furan-2-yl]phenyl]guanidine] | ≤ 1500 | inhibited schizont egression | 258 ± 54.2 | schizontocidal activity; also recorded: completely prevented invasion/schizont rupture | 29600 ± 3760 | < 75000 nM and 20000 nM | 284 ± 24.7 | 119000 ± 33700 | > 100 | 387 ± 39.6 | additive (∑FIC 1–2.0) | Selectivity index B (HUH-7): 119.08; Selectivity index A (HEK293): 478.31
